Assay [1] concerns SH-SY5Y. Description: Antiproliferative activity against human SH-SY5Y cells assessed as inhibition of cell growth by CCK-8 assay. The class given is functional, cell-based.
Assay [2] concerns the target E3 ubiquitin-protein ligase Mdm2 (Homo sapiens) (UniProt Q00987). Description: Binding affinity to MDM2 (unknown origin) at 10 uM relative to control.
The test system of assay [3] is HCT-116. The experiment in a line: Antiproliferative activity against human HCT-116 cells assessed as inhibition of cell growth by CCK-8 assay. The class given is functional, cell-based.
Assay [4] relates to U-87 MG. The experiment in a line: Antiproliferative activity against human U-87 MG cells assessed as inhibition of cell growth by CCK-8 assay. It is filed as functional, cell-based, U-87MG ATCC.
Assay [5] has as its system MCF7. Description: Antiproliferative activity against human MCF7 cells assessed as inhibition of cell growth. The class given is functional, cell-based.
The target in assay [6] is T1, Tumour suppressor p53/oncoprotein Mdm2 (Homo sapiens, UniProt P04637+Q00987). The experiment in a line: Inhibition of MDM2/p53 interaction (unknown origin). The class given is protein assay.
Assay [7] concerns HeLa. The experiment in a line: Antiproliferative activity against human HeLa cells assessed as inhibition of cell growth by MTT assay. It is filed as functional, cell-based.
Assay [8] concerns JEG-3. Description: Antiproliferative activity against human JEG-3 cells assessed as inhibition of cell growth. The class given is functional, cell-based.
The subject of assay [9] is MDA-MB-231. The experiment in a line: Antiproliferative activity against human MDA-MB-231 cells assessed as inhibition of cell growth. It is filed as functional, cell-based.
The test system of assay [10] is PC-3. Description: Antiproliferative activity against human PC-3 cells assessed as inhibition of cell growth by MTT assay. The class given is functional, cell-based. A general note: Tetrazolium dyes change colour on reduction, which living cells bring about.
In assay [11] the test system is LNCaP. Description: Antiproliferative activity against human LNCaP cells expressing p53 assessed as inhibition of cell growth by MTT assay. The class given is functional, cell-based.
Assay [12] deals with MCF7. The experiment in a line: Antiproliferative activity against human MCF7 cells assessed as inhibition of cell growth by MTT assay. It is filed as functional, cell-based.
For assay [13], the system named is HCT-116. The experiment in a line: Antiproliferative activity against human HCT-116 cells assessed as inhibition of cell growth by MTT assay. It is filed as functional, cell-based.
The test system of assay [14] is HL-60. Description: Antiproliferative activity against human HL-60 cells assessed as inhibition of cell growth. The class given is functional, cell-based.
Assay [15] concerns U-87 MG. Description: Antiproliferative activity against human U87 cells assessed as inhibition of cell growth. It is filed as functional, cell-based, U-87MG ATCC.
In assay [16] the test system is A549. Description: Antiproliferative activity against human A549 cells assessed as inhibition of cell growth. The class given is functional, cell-based.
The target of assay [17] is Tumour suppressor protein p53/Mdm4 (Homo sapiens, UniProt O15151+P04637). Description: Binding affinity to MDM4/p53 interaction (unknown origin) assessed as inhibition constant. It is filed as protein assay.
For assay [18], the system named is HCT-116. The experiment in a line: Antiproliferative activity against human HCT-116 cells assessed as inhibition of cell growth. It is filed as functional, cell-based.
Assay [19] has as its target T1, Tumour suppressor p53/oncoprotein Mdm2. Description: Binding affinity to MDM2/p53 interaction (unknown origin) assessed as inhibition constant. It is filed as protein assay.
In assay [20] the test system is HCT-116. The experiment in a line: Induction of apoptosis in human HCT-116 cells assessed as increase in p53 level. It is filed as functional.
Assay [21] concerns MDA-MB-231. Description: Induction of apoptosis in human MDA-MB-231 cells assessed as increase in p53 level. It is filed as functional.
For assay [22], the system named is PC-3. The experiment in a line: Induction of apoptosis in human PC-3 cells assessed as increase in p53 level. The class given is functional.
Assay [23] deals with A549. The experiment in a line: Induction of apoptosis in human A549 cells assessed as increase in p53 level. The class given is functional.
Assay [24] has as its system PC-3. Description: Antiproliferative activity against human PC-3 cells assessed as inhibition of cell growth. The class given is functional, cell-based.
In assay [25] the target is E3 ubiquitin-protein ligase Mdm2 (Homo sapiens) (UniProt Q00987). Description: Binding affinity to MDM2 (unknown origin) assessed as change in Gibbs free energy.
Assay [26] has as its system HT-29. Description: Antiproliferative activity against human HT-29 cells assessed as inhibition of cell growth by MTT assay. The class given is functional, cell-based.
Assay [27] deals with PANC-1. The experiment in a line: Antiproliferative activity against human PANC-1 cells assessed as inhibition of cell growth by MTT assay. The class given is functional, cell-based.
Assay [28] has as its system A549. The experiment in a line: Antiproliferative activity against human A549 cells assessed as inhibition of cell growth by MTT assay. It is filed as functional, cell-based.
The test system of assay [29] is K562. The experiment in a line: Antiproliferative activity against human K562 cells assessed as inhibition of cell growth. The class given is functional, cell-based.

SMILES strings stand for the structures. ≈ marks a conversion by molar mass, not a printed value.

Chain of E3 ubiquitin-protein ligase Mdm2 (Homo sapiens) (Q00987 whole entry, looked up): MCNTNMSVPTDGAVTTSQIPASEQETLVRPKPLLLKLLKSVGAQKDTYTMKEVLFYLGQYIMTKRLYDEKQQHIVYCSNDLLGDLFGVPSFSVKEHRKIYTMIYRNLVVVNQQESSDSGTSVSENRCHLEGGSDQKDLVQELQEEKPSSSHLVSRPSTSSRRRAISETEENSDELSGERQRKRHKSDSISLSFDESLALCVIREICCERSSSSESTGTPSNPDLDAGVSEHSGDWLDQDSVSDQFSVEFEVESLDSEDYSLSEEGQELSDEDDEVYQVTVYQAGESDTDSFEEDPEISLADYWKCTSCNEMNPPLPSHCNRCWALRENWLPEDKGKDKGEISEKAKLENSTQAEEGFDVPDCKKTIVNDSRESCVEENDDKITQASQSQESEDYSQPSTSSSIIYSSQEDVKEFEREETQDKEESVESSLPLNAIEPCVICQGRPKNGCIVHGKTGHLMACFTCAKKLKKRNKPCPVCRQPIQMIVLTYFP
T1 sequence (P04637 whole entry): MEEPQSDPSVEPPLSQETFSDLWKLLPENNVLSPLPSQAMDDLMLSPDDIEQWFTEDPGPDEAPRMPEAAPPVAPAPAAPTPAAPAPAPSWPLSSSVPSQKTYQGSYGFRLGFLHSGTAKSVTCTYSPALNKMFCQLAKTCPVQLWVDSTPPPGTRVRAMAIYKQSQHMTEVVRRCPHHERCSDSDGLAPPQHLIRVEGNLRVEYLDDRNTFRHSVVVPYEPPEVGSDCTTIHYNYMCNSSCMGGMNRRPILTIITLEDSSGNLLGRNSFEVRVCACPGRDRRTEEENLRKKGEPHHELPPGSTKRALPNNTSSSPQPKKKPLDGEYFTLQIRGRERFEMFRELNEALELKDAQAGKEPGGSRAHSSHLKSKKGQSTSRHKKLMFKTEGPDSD
T1 sequence (Q00987 whole entry): as the sequence (Q00987 whole entry, looked up) above
Chain of Tumour suppressor protein p53/Mdm4 (P04637 whole entry): as the sequence (P04637 whole entry) above
Chain of Tumour suppressor protein p53/Mdm4 (O15151 whole entry): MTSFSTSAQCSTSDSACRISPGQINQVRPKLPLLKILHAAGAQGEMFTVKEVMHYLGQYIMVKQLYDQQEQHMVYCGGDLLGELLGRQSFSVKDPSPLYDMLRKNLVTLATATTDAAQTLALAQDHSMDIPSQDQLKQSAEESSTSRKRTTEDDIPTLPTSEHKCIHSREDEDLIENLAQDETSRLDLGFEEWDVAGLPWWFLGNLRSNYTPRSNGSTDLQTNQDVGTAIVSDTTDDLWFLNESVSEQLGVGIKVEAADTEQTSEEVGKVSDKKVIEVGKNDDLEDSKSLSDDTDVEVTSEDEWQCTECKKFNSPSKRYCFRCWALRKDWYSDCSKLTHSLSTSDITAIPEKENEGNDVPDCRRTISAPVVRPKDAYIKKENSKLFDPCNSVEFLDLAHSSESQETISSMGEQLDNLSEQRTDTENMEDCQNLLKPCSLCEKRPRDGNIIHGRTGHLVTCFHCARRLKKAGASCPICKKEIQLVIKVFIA

The IC50 is the concentration needed to halve the response being measured. Regarding `O=C1NC(O)(c2ccc(Cl)cc2)C(c2ccc(Cl)cc2)=C1c1ccc(Cl)cc1` (stereo not drawn), the IC50 in assay [1] is 1.48 µM; in [3] it was 0.59 µM; in assay [4], 0.93 µM. In assay [2], this molecule gave an Activity of 97%.
In the case of `O=C1/C(=C/c2ccc(Br)cc2)CCC[C@]12[C@@H]1CCCN1[C@@]1(C(=O)Nc3ccccc31)[C@H]2c1ccc(Br)cc1`, in assay [5], the IC50 came out at 15.5 µM.
Molecule `COc1cc(OC)c(C(=O)/C=C/c2ccc(Br)cc2)c(OCC=C(C)C)c1` came in with an IC50 in [6] of 2.1 µM.
For `C[C@@H]1[C@@H]2CCCC[C@@H]2N2[C@H]1[C@@H](c1ccccc1)[C@@]1(CCC/C(=C\c3ccccc3)C1=O)[C@@]21C(=O)Nc2ccccc21`, the IC50 in assay [7] was found to be 7.1 µM.
On to `O=c1[nH]cc(F)c(=O)[nH]1` [FLUOROURACIL], for which the IC50 in assay [5] turned out to be 78.3 µM.
On to `C[C@@H]1[C@@H]2CCCC[C@@H]2N2[C@H]1[C@@H](c1ccc(F)cc1)[C@@]1(CCC/C(=C\c3ccc(F)cc3)C1=O)[C@@]21C(=O)Nc2cc(Cl)ccc21`, for which the IC50 in [7] was 7.2 µM.
Take `C[C@@H]1CN(C)[C@]2(C(=O)N(CN3CCSCC3)c3ccccc32)[C@@]12CCC/C(=C\c1ccccc1)C2=O`: the IC50 in assay [8] was 31 mg/L (≈ 61.8 µM); in assay [9] it was 31 mg/L; in assay [5], 31 mg/L.
On to `C[C@@H]1CN(C)[C@]2(C(=O)N(CN3CCCC3)c3ccccc32)[C@@]12CCC/C(=C\c1ccccc1)C2=O`, for which the IC50 in [8] is 31 mg/L (≈ 66 µM); in assay [9], 31 mg/L; in assay [5] it was 31 mg/L.
For the molecule `COc1ccc([C@@H]2CN(C)[C@@]3(C(=O)Nc4ccccc43)[C@]23N=C(c2ccc(C)cc2)OC3=O)cc1`, the IC50 in assay [10] turned out to be 3.21 µM; in assay [11], 1.08 µM.
Regarding `Cc1cc(S(=O)(=O)/N=C2/NCCN2Cc2cc(C(F)(F)F)cc(C(F)(F)F)c2)c(SCc2nc(N)nc(N3CCN(c4ccccc4)CC3)n2)cc1Cl`, the IC50 in assay [7], in assay [12] and in assay [13] was 3.6 µM in each case.
For the molecule `O=C(Nc1cccc(Cl)c1)Sc1nnc(-c2ccc(Cl)cc2)n1-c1ccccc1`, the IC50 in assay [14] came out at 17.5 µM; in assay [15], 4.15 µM; in [16] it was 3.85 µM.
A word on the Ki: it is the dissociation constant of the complex between target and ligand, obtained from inhibition or displacement. `O=C1/C(=C/c2cccc(Cl)c2)c2ccccc2N1S(=O)(=O)c1cccc(Cl)c1`: the Ki in assay [17] turned out to be 0.031 µM; in assay [19], 7.24 µM. Also, the IC50 in assay [18] was 11.2 µM; in [16], 12.5 µM; in [5], 6.17 µM.
For `O=C(c1nc2ccccc2[nH]1)[C@H]1[C@H](c2ccccc2)C2CC3CCCCC3N2[C@]12C(=O)Nc1ccc(Cl)cc12` (stereo partly drawn), the Activity in assay [20] came to 49.83%; in assay [21], 51.51%; in [22] it was 57.53%; in assay [23], 34.31%. The IC50 was determined as 7.24 µM in assay [18], 2.4 µM in assay [9], 7.81 µM in assay [16] and 3.4 µM in assay [24].
`Cc1cc(S(=O)(=O)/N=C2/NCCN2Cc2ccc(C(F)(F)F)cc2)c(SCc2nc(N)nc(N3CCN(c4cccc(C(F)(F)F)c4)CC3)n2)cc1Cl`: the IC50 in assay [7], in assay [12] and in assay [13] was 5 µM in each case.
As for `COc1ccc(-c2nc3sc(-c4ccc(Br)cc4Br)cn3n2)cc1`, the IC50 in assay [12] was 1.2 µM; in assay [26] it was 1.3 µM; in assay [27], 1.6 µM; in assay [28], 1.4 µM. Moreover, the deltaG in assay [25] was -31.6 kJ/mol.
For `CN1[C@H](c2ccc(Cl)cc2)[C@@]2(C[C@]13C(=O)Nc1ccc(Br)cc13)NC(=O)N(c1ccc(F)c(Cl)c1)C2=O`, the IC50 in assay [12] came to 1.3 µM.
Take `Cc1cc(S(=O)(=O)/N=C2/NCCN2Cc2ccc(C(F)(F)F)cc2)c(SCc2nc(N)nc(N3CCN(c4cccc(F)c4)CC3)n2)cc1Cl`: the IC50 in assay [7], in assay [12] and in assay [13] was 4.6 µM throughout.
As for `C[C@@H]1[C@@H]2CCCC[C@@H]2N2[C@H]1[C@@H](c1ccccc1)[C@@]1(CCC/C(=C\c3ccccc3)C1=O)[C@@]21C(=O)Nc2cc(Cl)ccc21`, the IC50 in assay [10] was 3.7 µM.
For the molecule `Cc1cc(S(=O)(=O)/N=C2/NCCN2Cc2cc(C(F)(F)F)cc(C(F)(F)F)c2)c(SCc2nc(N)nc(N3CCN(Cc4ccccc4)CC3)n2)cc1Cl`, the IC50 in assay [7], in assay [12] and in assay [13] was 4.8 µM each time.
Regarding `COc1ccc(/C=C2\CCC[C@@]3(C2=O)[C@@H]2CCCN2[C@@]2(C(=O)Nc4ccccc42)[C@H]3c2ccc(OC)cc2)cc1`, the IC50 in [29] is 13.4 µM.

The record behind these values is ChEMBL document CHEMBL5331082, “p53 as a potential target for treatment of cancer: A perspective on recent advancements in small molecules with structural insights and SAR studies” (Eur J Med Chem, 2023).
